Results as given in the kinase profiling compilation of Christmann-Franck et al. (2016).
Blank lines part the entries; values can stand above or below the compound they belong to.

Key:
Assay in all cases: radiometric filter-binding kinase assay, Kinase HotSpot
Details in all cases: compound 0.5 µM; ATP 10 µM
BTK (human) = BTK (human) (UniProt Q06187)
CAMK2A (human) = CAMK2A (human) (UniProt Q9UQM7)
CAMK2G (human) = CAMK2G (human) (UniProt Q13555)
CSF1R (human) = CSF1R (human) (UniProt P07333)
CSNK1G1 (human) = CSNK1G1 (human) (UniProt Q9HCP0)
CSNK1G2 (human) = CSNK1G2 (human) (UniProt P78368)
CSNK2A2 (human) = CSNK2A2 (human) (UniProt P19784)
DMPK (human) = DMPK (human) (UniProt Q09013)
DYRK1A (human) = DYRK1A (human) (UniProt Q13627)
DYRK3 (human) = DYRK3 (human) (UniProt O43781)
EPHA1 (human) = EPHA1 (human) (UniProt P21709)
EPHA8 (human) = EPHA8 (human) (UniProt P29322)
EPHB3 (human) = EPHB3 (human) (UniProt P54753)
FGFR3 (human) = FGFR3 (human) (UniProt P22607)
FGFR4 (human) = FGFR4 (human) (UniProt P22455)
GSK3B (human) = GSK3B (human) (UniProt P49841)
HIPK1 (human) = HIPK1 (human) (UniProt Q86Z02)
ITK (human) = ITK (human) (UniProt Q08881)
JAK3 JH1 JH2 (human) = JAK3 JH1 JH2 (human) (UniProt P52333)
MAP3K5 (human) = MAP3K5 (human) (UniProt Q99683)
MAP4K4 (human) = MAP4K4 (human) (UniProt O95819)
MARK3 (human) = MARK3 (human) (UniProt P27448)
MERTK (human) = MERTK (human) (UniProt Q12866)
MINK1 (human) = MINK1 (human) (UniProt Q8N4C8)
MUSK (human) = MUSK (human) (UniProt O15146)
MYLK2 (human) = MYLK2 (human) (UniProt Q9H1R3)
NEK3 (human) = NEK3 (human) (UniProt P51956)
NEK7 (human) = NEK7 (human) (UniProt Q8TDX7)
NUAK1 (human) = NUAK1 (human) (UniProt O60285)
OXSR1 (human) = OXSR1 (human) (UniProt O95747)
PBK (human) = PBK (human) (UniProt Q96KB5)
PIM1 (human) = PIM1 (human) (UniProt P11309)
PIM3 (human) = PIM3 (human) (UniProt Q86V86)
PLK3 (human) = PLK3 (human) (UniProt Q9H4B4)
PNCK (human) = PNCK (human) (UniProt Q6P2M8)
PRKACA (human) = PRKACA (human) (UniProt P17612)
RAF1 (human) = RAF1 (human) (UniProt P04049)
SRMS (human) = SRMS (human) (UniProt Q9H3Y6)
STK25 (human) = STK25 (human) (UniProt O00506)
STK33 (human) = STK33 (human) (UniProt Q9BYT3)
ULK1 (human) = ULK1 (human) (UniProt O75385)
WEE1 (human) = WEE1 (human) (UniProt P30291)

Sequence of FGFR3 (human) (P22607 whole entry, looked up): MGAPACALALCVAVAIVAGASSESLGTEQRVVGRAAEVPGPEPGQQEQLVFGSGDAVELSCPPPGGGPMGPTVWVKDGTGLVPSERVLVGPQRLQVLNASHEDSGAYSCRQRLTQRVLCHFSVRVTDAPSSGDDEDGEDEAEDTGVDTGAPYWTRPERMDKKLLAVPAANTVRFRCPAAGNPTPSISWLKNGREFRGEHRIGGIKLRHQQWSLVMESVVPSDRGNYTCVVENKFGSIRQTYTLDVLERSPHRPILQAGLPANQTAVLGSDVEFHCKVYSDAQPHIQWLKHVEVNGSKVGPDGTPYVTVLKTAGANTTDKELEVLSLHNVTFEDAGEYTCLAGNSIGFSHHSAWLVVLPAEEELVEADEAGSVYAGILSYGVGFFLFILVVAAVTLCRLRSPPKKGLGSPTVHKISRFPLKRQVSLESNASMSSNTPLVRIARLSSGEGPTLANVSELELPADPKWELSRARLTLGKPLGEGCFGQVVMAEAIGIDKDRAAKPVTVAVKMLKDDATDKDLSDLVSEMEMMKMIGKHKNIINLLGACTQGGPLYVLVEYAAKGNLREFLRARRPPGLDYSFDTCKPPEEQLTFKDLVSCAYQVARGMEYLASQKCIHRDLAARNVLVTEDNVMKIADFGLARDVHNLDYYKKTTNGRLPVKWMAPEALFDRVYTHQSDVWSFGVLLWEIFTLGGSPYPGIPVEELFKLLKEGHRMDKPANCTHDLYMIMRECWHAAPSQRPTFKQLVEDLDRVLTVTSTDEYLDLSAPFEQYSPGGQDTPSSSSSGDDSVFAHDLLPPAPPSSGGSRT
Sequence of PNCK (human) (Q6P2M8 whole entry, looked up): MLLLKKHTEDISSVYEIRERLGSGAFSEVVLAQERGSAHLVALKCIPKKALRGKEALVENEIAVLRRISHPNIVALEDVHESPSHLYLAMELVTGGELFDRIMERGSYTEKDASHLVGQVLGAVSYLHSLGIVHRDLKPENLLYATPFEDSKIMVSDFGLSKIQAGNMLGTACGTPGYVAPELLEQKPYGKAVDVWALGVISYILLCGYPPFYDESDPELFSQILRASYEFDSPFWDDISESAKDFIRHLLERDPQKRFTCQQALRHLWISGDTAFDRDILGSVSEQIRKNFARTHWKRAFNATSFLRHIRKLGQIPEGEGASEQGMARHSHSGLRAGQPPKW
Sequence of NEK7 (human) (Q8TDX7 whole entry, looked up): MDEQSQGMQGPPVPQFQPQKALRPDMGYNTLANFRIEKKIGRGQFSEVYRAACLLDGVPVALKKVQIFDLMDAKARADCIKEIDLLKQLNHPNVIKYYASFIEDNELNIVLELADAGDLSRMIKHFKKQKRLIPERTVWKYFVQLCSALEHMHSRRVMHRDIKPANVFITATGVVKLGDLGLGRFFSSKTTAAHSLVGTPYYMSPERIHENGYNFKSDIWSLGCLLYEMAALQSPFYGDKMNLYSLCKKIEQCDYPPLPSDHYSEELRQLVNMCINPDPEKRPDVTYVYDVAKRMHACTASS
Sequence of CSNK1G2 (human) (P78368 whole entry, looked up): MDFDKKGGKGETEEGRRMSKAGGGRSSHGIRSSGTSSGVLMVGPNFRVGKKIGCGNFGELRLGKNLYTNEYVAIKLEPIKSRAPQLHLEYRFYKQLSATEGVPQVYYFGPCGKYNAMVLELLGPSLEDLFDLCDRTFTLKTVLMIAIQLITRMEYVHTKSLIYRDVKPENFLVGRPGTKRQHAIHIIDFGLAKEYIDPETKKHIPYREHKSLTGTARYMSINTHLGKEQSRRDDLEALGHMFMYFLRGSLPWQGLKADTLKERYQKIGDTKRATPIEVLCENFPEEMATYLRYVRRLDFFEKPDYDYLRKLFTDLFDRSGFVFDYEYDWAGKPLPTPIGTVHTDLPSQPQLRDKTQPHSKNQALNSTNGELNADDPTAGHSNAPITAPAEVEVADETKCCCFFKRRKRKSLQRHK
Sequence of MAP4K4 (human) (O95819 whole entry, looked up): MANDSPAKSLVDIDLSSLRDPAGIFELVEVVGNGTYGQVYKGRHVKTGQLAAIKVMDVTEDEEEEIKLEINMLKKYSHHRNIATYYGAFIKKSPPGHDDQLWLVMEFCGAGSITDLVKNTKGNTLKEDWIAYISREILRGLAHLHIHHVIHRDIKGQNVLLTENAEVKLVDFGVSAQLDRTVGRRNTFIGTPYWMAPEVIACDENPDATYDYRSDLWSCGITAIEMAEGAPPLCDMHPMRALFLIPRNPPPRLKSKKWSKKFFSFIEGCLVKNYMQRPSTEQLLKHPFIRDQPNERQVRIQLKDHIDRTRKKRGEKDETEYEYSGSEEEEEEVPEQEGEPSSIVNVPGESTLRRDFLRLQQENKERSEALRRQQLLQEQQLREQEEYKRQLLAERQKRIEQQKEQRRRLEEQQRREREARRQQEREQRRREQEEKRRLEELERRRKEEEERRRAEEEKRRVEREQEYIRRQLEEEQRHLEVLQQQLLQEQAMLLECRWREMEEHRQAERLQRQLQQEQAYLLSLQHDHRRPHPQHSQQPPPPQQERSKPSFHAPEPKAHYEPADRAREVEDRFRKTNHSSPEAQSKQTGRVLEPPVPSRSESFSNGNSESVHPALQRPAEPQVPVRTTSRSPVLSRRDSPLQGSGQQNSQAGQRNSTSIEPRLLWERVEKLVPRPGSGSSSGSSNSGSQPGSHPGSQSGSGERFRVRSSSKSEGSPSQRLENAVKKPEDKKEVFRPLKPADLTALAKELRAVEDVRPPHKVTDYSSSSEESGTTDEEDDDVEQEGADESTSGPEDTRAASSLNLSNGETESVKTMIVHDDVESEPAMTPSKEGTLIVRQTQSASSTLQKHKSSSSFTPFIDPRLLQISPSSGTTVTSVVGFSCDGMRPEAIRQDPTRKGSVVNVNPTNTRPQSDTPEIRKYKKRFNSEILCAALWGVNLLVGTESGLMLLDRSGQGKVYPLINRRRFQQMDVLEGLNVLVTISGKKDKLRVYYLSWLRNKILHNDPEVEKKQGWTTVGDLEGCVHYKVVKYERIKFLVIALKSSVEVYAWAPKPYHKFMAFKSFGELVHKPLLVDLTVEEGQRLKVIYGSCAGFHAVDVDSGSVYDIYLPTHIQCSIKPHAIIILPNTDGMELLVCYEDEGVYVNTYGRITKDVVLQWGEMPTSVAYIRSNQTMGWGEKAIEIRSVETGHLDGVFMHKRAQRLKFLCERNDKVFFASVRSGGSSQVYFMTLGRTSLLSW
Sequence of EPHA1 (human) (P21709 whole entry, looked up): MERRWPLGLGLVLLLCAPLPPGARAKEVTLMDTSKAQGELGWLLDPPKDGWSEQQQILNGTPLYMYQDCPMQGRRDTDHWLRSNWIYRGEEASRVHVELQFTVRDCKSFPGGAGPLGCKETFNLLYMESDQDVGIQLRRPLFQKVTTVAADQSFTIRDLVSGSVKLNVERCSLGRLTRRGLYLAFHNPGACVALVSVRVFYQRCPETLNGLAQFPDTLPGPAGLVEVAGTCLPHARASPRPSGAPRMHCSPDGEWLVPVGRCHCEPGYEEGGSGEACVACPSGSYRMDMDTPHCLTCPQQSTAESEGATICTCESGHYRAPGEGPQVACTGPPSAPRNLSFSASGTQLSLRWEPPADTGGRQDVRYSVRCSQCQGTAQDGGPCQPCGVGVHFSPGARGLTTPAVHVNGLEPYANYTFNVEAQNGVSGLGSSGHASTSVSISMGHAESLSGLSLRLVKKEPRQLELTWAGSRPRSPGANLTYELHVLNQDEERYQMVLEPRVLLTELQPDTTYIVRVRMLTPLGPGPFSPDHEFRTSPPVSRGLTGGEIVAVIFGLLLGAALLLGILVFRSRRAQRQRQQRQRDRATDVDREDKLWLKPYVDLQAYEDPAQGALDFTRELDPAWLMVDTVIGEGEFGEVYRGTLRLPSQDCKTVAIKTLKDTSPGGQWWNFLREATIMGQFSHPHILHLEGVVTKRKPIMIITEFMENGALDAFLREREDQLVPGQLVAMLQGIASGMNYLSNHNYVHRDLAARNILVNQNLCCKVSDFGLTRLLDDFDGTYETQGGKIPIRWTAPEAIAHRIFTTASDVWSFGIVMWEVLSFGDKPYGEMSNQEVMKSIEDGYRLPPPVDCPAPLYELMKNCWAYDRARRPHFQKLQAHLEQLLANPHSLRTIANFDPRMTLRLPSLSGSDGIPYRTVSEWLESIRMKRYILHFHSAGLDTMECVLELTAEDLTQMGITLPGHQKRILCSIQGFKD
Sequence of BTK (human) (Q06187 whole entry, looked up): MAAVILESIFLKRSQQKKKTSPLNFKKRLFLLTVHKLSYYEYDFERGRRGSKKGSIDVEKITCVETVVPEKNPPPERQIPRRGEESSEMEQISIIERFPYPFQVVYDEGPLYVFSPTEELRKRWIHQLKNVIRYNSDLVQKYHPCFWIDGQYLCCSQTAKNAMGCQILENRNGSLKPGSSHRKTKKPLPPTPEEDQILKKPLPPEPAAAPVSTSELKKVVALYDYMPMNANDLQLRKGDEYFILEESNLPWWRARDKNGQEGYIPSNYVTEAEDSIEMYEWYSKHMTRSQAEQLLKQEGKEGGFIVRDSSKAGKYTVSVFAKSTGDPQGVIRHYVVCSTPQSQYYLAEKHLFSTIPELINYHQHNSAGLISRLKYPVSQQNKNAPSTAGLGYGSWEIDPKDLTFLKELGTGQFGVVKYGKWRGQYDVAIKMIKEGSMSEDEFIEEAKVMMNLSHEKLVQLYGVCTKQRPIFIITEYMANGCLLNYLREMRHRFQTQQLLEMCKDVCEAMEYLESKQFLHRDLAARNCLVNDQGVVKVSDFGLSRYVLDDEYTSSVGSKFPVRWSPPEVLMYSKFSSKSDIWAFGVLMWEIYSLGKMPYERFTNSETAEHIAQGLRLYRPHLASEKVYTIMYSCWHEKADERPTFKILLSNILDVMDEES

residual activity (BTK (human)): 59.3%
residual activity (CAMK2A (human)): 50.2%
residual activity (CAMK2G (human)): 69.8%
residual activity (CSF1R (human)): 83.2%
residual activity (CSNK1G1 (human)): 86.8%
residual activity (CSNK1G2 (human)): 89.4%
residual activity (CSNK2A2 (human)): 75%
residual activity (DMPK (human)): 101%
residual activity (DYRK1A (human)): 105%
residual activity (DYRK3 (human)): 106%
residual activity (EPHA1 (human)): 99.4%
residual activity (EPHA8 (human)): 91.1%
residual activity (EPHB3 (human)): 92.3%
residual activity (FGFR3 (human)): 70.4%
residual activity (FGFR4 (human)): 91.9%
residual activity (GSK3B (human)): 27.3%
residual activity (HIPK1 (human)): 98.9%
residual activity (ITK (human)): 53%
residual activity (JAK3 JH1 JH2 (human)): 51.5%
residual activity (MAP3K5 (human)): 84.3%
residual activity (MAP4K4 (human)): 42%
residual activity (MARK3 (human)): 85.8%
residual activity (MERTK (human)): 82.2%
residual activity (MINK1 (human)): 50.2%
residual activity (MUSK (human)): 71.2%
residual activity (MYLK2 (human)): 41.1%
residual activity (NEK3 (human)): 102%
residual activity (NEK7 (human)): 106%
residual activity (NUAK1 (human)): 8.89%
residual activity (OXSR1 (human)): 91.7%
residual activity (PBK (human)): 89.5%
residual activity (PIM1 (human)): 85.2%
residual activity (PIM3 (human)): 73.6%
residual activity (PLK3 (human)): 93%
residual activity (PNCK (human)): 106%
residual activity (PRKACA (human)): 107%
residual activity (RAF1 (human)): 99.3%
residual activity (SRMS (human)): 102%
residual activity (STK25 (human)): 87.5%
residual activity (STK33 (human)): 44.1%
residual activity (ULK1 (human)): 78.9%
residual activity (WEE1 (human)): 87.1%
SMILES: O=C1Nc2ccccc2/C1=C1\Nc2ccccc2\C1=N/O

SMILES: Nc1nccc(-c2c(-c3ccc(F)cc3)ncn2C2CCNCC2)n1
residual activity (BTK (human)): 100%
residual activity (CAMK2A (human)): 100%
residual activity (CAMK2G (human)): 93%
residual activity (CSF1R (human)): 100%
residual activity (CSNK1G1 (human)): 83.1%
residual activity (CSNK1G2 (human)): 119%
residual activity (CSNK2A2 (human)): 92.2%
residual activity (DMPK (human)): 99.3%
residual activity (DYRK1A (human)): 96.3%
residual activity (DYRK3 (human)): 96%
residual activity (EPHA1 (human)): 98.2%
residual activity (EPHA8 (human)): 101%
residual activity (EPHB3 (human)): 101%
residual activity (FGFR3 (human)): 100%
residual activity (FGFR4 (human)): 85.7%
residual activity (GSK3B (human)): 101%
residual activity (HIPK1 (human)): 101%
residual activity (ITK (human)): 90.5%
residual activity (JAK3 JH1 JH2 (human)): 96.9%
residual activity (MAP3K5 (human)): 102%
residual activity (MAP4K4 (human)): 76.3%
residual activity (MARK3 (human)): 103%
residual activity (MERTK (human)): 98%
residual activity (MINK1 (human)): 96.1%
residual activity (MUSK (human)): 86.9%
residual activity (MYLK2 (human)): 103%
residual activity (NEK3 (human)): 99%
residual activity (NEK7 (human)): 98.9%
residual activity (NUAK1 (human)): 98.4%
residual activity (OXSR1 (human)): 101%
residual activity (PBK (human)): 94.9%
residual activity (PIM1 (human)): 97%
residual activity (PIM3 (human)): 96%
residual activity (PLK3 (human)): 97.8%
residual activity (PNCK (human)): 94.3%
residual activity (PRKACA (human)): 83%
residual activity (RAF1 (human)): 90.9%
residual activity (SRMS (human)): 97.5%
residual activity (STK25 (human)): 99.8%
residual activity (STK33 (human)): 98.6%
residual activity (ULK1 (human)): 95.3%
residual activity (WEE1 (human)): 106%

SMILES: O=C(O)/C=C/c1cc(Br)c(Br)c(Br)c1Br
residual activity (BTK (human)): 97.8%
residual activity (CAMK2A (human)): 64.4%
residual activity (CAMK2G (human)): 104%
residual activity (CSF1R (human)): 99%
residual activity (CSNK1G1 (human)): 97.2%
residual activity (CSNK1G2 (human)): 90.1%
residual activity (CSNK2A2 (human)): 17%
residual activity (DMPK (human)): 103%
residual activity (DYRK1A (human)): 74.8%
residual activity (DYRK3 (human)): 100%
residual activity (EPHA1 (human)): 94.6%
residual activity (EPHA8 (human)): 99.1%
residual activity (EPHB3 (human)): 89.8%
residual activity (FGFR3 (human)): 94.9%
residual activity (FGFR4 (human)): 88.3%
residual activity (GSK3B (human)): 105%
residual activity (HIPK1 (human)): 99.6%
residual activity (ITK (human)): 100%
residual activity (JAK3 JH1 JH2 (human)): 71.8%
residual activity (MAP3K5 (human)): 94%
residual activity (MAP4K4 (human)): 63.5%
residual activity (MARK3 (human)): 104%
residual activity (MERTK (human)): 92.4%
residual activity (MINK1 (human)): 96%
residual activity (MUSK (human)): 53.6%
residual activity (MYLK2 (human)): 86.8%
residual activity (NEK3 (human)): 83.5%
residual activity (NEK7 (human)): 98%
residual activity (NUAK1 (human)): 87.6%
residual activity (OXSR1 (human)): 93.5%
residual activity (PBK (human)): 96.2%
residual activity (PIM1 (human)): 16.2%
residual activity (PIM3 (human)): 17.7%
residual activity (PLK3 (human)): 73.6%
residual activity (PNCK (human)): 95.1%
residual activity (PRKACA (human)): 98.4%
residual activity (RAF1 (human)): 91.3%
residual activity (SRMS (human)): 89.3%
residual activity (STK25 (human)): 87.2%
residual activity (STK33 (human)): 67.9%
residual activity (ULK1 (human)): 108%
residual activity (WEE1 (human)): 99.1%
